In the NIST ThermoML archive (doi:10.1016/j.jct.2018.10.006):

What was measured:
[1] = for molar entropy / mass density: 101.33 kPa; for mass density: X-ray diffraction
[2] = Molar enthalpy of transition or fusion; conditions: Crystal 2; DSC

O=P([O-])([O-])[O-].[Cs+].[Ni+2] [cesium nickel monophosphate]
[1]
Conditions	mass density [kg/m3]	molar entropy [J/K/mol]
5 K, Crystal 2, Small (less than 1 g) adiabatic calorimetry	–	0.4664
6 K, Crystal 2, Small (less than 1 g) adiabatic calorimetry	–	0.6618
7 K, Crystal 2, Small (less than 1 g) adiabatic calorimetry	–	0.8896
8 K, Crystal 2, Small (less than 1 g) adiabatic calorimetry	–	1.147
9 K, Crystal 2, Small (less than 1 g) adiabatic calorimetry	–	1.438
10 K, Crystal 2, Small (less than 1 g) adiabatic calorimetry	–	1.763
15 K, Crystal 2, Small (less than 1 g) adiabatic calorimetry	–	3.941
20 K, Crystal 2, Small (less than 1 g) adiabatic calorimetry	–	6.944
25 K, Crystal 2, Small (less than 1 g) adiabatic calorimetry	–	10.43
30 K, Crystal 2, Small (less than 1 g) adiabatic calorimetry	–	14.35
35 K, Crystal 2, Small (less than 1 g) adiabatic calorimetry	–	18.52
40 K, Crystal 2, Small (less than 1 g) adiabatic calorimetry	–	22.78
45 K, Crystal 2, Small (less than 1 g) adiabatic calorimetry	–	27.1
50 K, Crystal 2, Small (less than 1 g) adiabatic calorimetry	–	31.46
60 K, Crystal 2, Small (less than 1 g) adiabatic calorimetry	–	40.28
70 K, Crystal 2, Small (less than 1 g) adiabatic calorimetry	–	49.01
80 K, Crystal 2, Small (less than 1 g) adiabatic calorimetry	–	57.49
90 K, Crystal 2, Small (less than 1 g) adiabatic calorimetry	–	65.63
100 K, Crystal 2, Small (less than 1 g) adiabatic calorimetry	–	73.47
110 K, Crystal 2, Small (less than 1 g) adiabatic calorimetry	–	81.12
120 K, Crystal 2, Small (less than 1 g) adiabatic calorimetry	–	88.55
130 K, Crystal 2, Small (less than 1 g) adiabatic calorimetry	–	95.7
140 K, Crystal 2, Small (less than 1 g) adiabatic calorimetry	–	102.6
150 K, Crystal 2, Small (less than 1 g) adiabatic calorimetry	–	109.34
160 K, Crystal 2, Small (less than 1 g) adiabatic calorimetry	–	115.9
170 K, Crystal 2, Small (less than 1 g) adiabatic calorimetry	–	122.31
180 K, Crystal 2, Small (less than 1 g) adiabatic calorimetry	–	128.54
190 K, Crystal 2, Small (less than 1 g) adiabatic calorimetry	–	134.69
200 K, Crystal 2, Small (less than 1 g) adiabatic calorimetry	–	140.68
210 K, Crystal 2, Small (less than 1 g) adiabatic calorimetry	–	146.58
220 K, Crystal 2, Small (less than 1 g) adiabatic calorimetry	–	152.32
230 K, Crystal 2, Small (less than 1 g) adiabatic calorimetry	–	157.89
240 K, Crystal 2, Small (less than 1 g) adiabatic calorimetry	–	163.38
250 K, Crystal 2, Small (less than 1 g) adiabatic calorimetry	–	168.7
260 K, Crystal 2, Small (less than 1 g) adiabatic calorimetry	–	173.94
270 K, Crystal 2, Small (less than 1 g) adiabatic calorimetry	–	179.09
273.15 K, Crystal 2, Small (less than 1 g) adiabatic calorimetry	–	180.67
280 K, Crystal 2, Small (less than 1 g) adiabatic calorimetry	–	184.17
290 K, Crystal 2, Small (less than 1 g) adiabatic calorimetry	–	189.15
298 K, Crystal 2	4218.3	–
298.15 K, Crystal 2, Small (less than 1 g) adiabatic calorimetry	–	193.23
300 K, Crystal 2, Small (less than 1 g) adiabatic calorimetry	–	194.14
310 K, Crystal 2, Small (less than 1 g) adiabatic calorimetry	–	199.13
320 K, Crystal 2, Small (less than 1 g) adiabatic calorimetry	–	204.04
330 K, Crystal 2, Small (less than 1 g) adiabatic calorimetry	–	208.86
340 K, Crystal 2, Small (less than 1 g) adiabatic calorimetry	–	213.68
350 K, Crystal 2, Small (less than 1 g) adiabatic calorimetry	–	218.42
360 K, Crystal 2, Small (less than 1 g) adiabatic calorimetry	–	223.08
370 K, Crystal 2, Small (less than 1 g) adiabatic calorimetry	–	227.82
380 K, Crystal 2, Small (less than 1 g) adiabatic calorimetry	–	232.47
382.8 K, Crystal 1, DSC	–	237.46
382.8 K, Crystal 2, Small (less than 1 g) adiabatic calorimetry	–	233.72
390 K, Crystal 1, DSC	–	240.7
400 K, Crystal 1, DSC	–	245.19
410 K, Crystal 1, DSC	–	249.52
420 K, Crystal 1, DSC	–	253.76
430 K, Crystal 1, DSC	–	257.83
440 K, Crystal 1, DSC	–	261.82
450 K, Crystal 1, DSC	–	265.73
460 K, Crystal 1, DSC	–	269.64
470 K, Crystal 1, DSC	–	273.38
473 K, Crystal 1	4124	–
480 K, Crystal 1, DSC	–	277.04
490 K, Crystal 1, DSC	–	280.7
500 K, Crystal 1, DSC	–	284.27
510 K, Crystal 1, DSC	–	287.76
520 K, Crystal 1, DSC	–	291.17
530 K, Crystal 1, DSC	–	294.58
540 K, Crystal 1, DSC	–	297.91
550 K, Crystal 1, DSC	–	301.23
560 K, Crystal 1, DSC	–	304.48
570 K, Crystal 1, DSC	–	307.64
573 K, Crystal 1	4090	–
580 K, Crystal 1, DSC	–	310.79
590 K, Crystal 1, DSC	–	313.87
600 K, Crystal 1, DSC	–	316.86
610 K, Crystal 1, DSC	–	319.86
620 K, Crystal 1, DSC	–	322.85
630 K, Crystal 1, DSC	–	325.76
640 K, Crystal 1, DSC	–	328.67
650 K, Crystal 1, DSC	–	331.58
673 K, Crystal 1	4080	–
773 K, Crystal 1	4040	–
873 K, Crystal 1	4030	–
973 K, Crystal 1	4000	–
1073 K, Crystal 1	3980	–

Conditions	Triple point temperature [K]
[1], Crystal 2, DSC	382.8

Conditions	Molar enthalpy of transition or fusion [kJ/mol]
[2]	1.41
